Test results published in the NIST ThermoML archive (doi:10.1021/je700294p).

What was measured:
[1] = refractive index (Na D-line) (dimensionless); details: 101.33 kPa, Liquid, Standard Abbe refractometry
[2] = 101.33 kPa, Liquid
[3] = excess molar enthalpy (molar enthalpy of mixing); xn = mol fraction of the nth substance listed; details: 101 kPa, Liquid
[4] = xn = mol fraction of the nth substance listed; details: 101 kPa, Liquid

CCCC[n+]1cccc(C)c1.F[B-](F)(F)F [1-butyl-3-methylpyridinium tetrafluoroborate]
Details | mass density, [2] [kg/m3] | refractive index, [1]
298.15 K | 1182.19 | 1.4473
318.15 K | 1168.31 | 1.4422

CCCC[n+]1cccc(C)c1.F[B-](F)(F)F [1-butyl-3-methylpyridinium tetrafluoroborate] + CCCCO
Details | excess molar enthalpy [kcal/mol] | mass density [kg/m3]
[3], 318.15 K, x1 = 0.0098 | 0.0361 | –
[3], 318.15 K, x1 = 0.025 | 0.0684 | –
[3], 318.15 K, x1 = 0.0464 | 0.138 | –
[3], 318.15 K, x1 = 0.3603 | 0.681 | –
[3], 318.15 K, x1 = 0.3932 | 0.684 | –
[3], 318.15 K, x1 = 0.445 | 0.677 | –
[3], 318.15 K, x1 = 0.5101 | 0.652 | –
[3], 318.15 K, x1 = 0.5852 | 0.591 | –
[3], 318.15 K, x1 = 0.6705 | 0.503 | –
[3], 318.15 K, x1 = 0.7667 | 0.378 | –
[3], 318.15 K, x1 = 0.8531 | 0.264 | –
[3], 318.15 K, x1 = 0.9346 | 0.125 | –
[4], 298.15 K, x1 = 0.0166 | – | 819.7
[4], 298.15 K, x1 = 0.7641 | – | 1136.6
[4], 298.15 K, x1 = 0.8166 | – | 1147.7
[4], 298.15 K, x1 = 0.8558 | – | 1155.7
[4], 298.15 K, x1 = 0.904 | – | 1165.1
[4], 318.15 K, x1 = 0.0191 | – | 805.5
[4], 318.15 K, x1 = 0.6961 | – | 1107.5
[4], 318.15 K, x1 = 0.7777 | – | 1125.9
[4], 318.15 K, x1 = 0.8535 | – | 1141.6
[4], 318.15 K, x1 = 0.9084 | – | 1152.1
[4], 318.15 K, x1 = 0.9479 | – | 1159.4

CCCC[n+]1cccc(C)c1.F[B-](F)(F)F [1-butyl-3-methylpyridinium tetrafluoroborate] + CCCO
Details | excess molar enthalpy [kcal/mol] | mass density [kg/m3]
[3], 298.15 K, x1 = 0.0139 | 0.039 | –
[3], 298.15 K, x1 = 0.0242 | 0.0564 | –
[3], 298.15 K, x1 = 0.0278 | 0.0681 | –
[3], 298.15 K, x1 = 0.3397 | 0.56 | –
[3], 298.15 K, x1 = 0.3707 | 0.56 | –
[3], 298.15 K, x1 = 0.4045 | 0.552 | –
[3], 298.15 K, x1 = 0.4278 | 0.544 | –
[3], 298.15 K, x1 = 0.4642 | 0.531 | –
[3], 298.15 K, x1 = 0.498 | 0.506 | –
[3], 298.15 K, x1 = 0.5458 | 0.47 | –
[3], 298.15 K, x1 = 0.5983 | 0.416 | –
[3], 298.15 K, x1 = 0.6621 | 0.364 | –
[3], 298.15 K, x1 = 0.7278 | 0.298 | –
[3], 298.15 K, x1 = 0.7939 | 0.229 | –
[3], 298.15 K, x1 = 0.8653 | 0.164 | –
[3], 298.15 K, x1 = 0.9335 | 0.0973 | –
[3], 318.15 K, x1 = 0.0232 | 0.0997 | –
[3], 318.15 K, x1 = 0.052 | 0.185 | –
[3], 318.15 K, x1 = 0.0852 | 0.276 | –
[3], 318.15 K, x1 = 0.1233 | 0.371 | –
[3], 318.15 K, x1 = 0.1608 | 0.46 | –
[3], 318.15 K, x1 = 0.2011 | 0.534 | –
[3], 318.15 K, x1 = 0.2044 | 0.552 | –
[3], 318.15 K, x1 = 0.2311 | 0.583 | –
[3], 318.15 K, x1 = 0.2591 | 0.611 | –
[3], 318.15 K, x1 = 0.2896 | 0.634 | –
[3], 318.15 K, x1 = 0.3223 | 0.652 | –
[3], 318.15 K, x1 = 0.3585 | 0.663 | –
[3], 318.15 K, x1 = 0.3982 | 0.664 | –
[3], 318.15 K, x1 = 0.4404 | 0.655 | –
[3], 318.15 K, x1 = 0.4891 | 0.634 | –
[3], 318.15 K, x1 = 0.5441 | 0.598 | –
[3], 318.15 K, x1 = 0.6073 | 0.537 | –
[3], 318.15 K, x1 = 0.674 | 0.457 | –
[3], 318.15 K, x1 = 0.7504 | 0.361 | –
[3], 318.15 K, x1 = 0.8323 | 0.252 | –
[3], 318.15 K, x1 = 0.9131 | 0.143 | –
[4], 298.15 K, x1 = 0.016 | – | 816.7
[4], 298.15 K, x1 = 0.4528 | – | 1066.5
[4], 298.15 K, x1 = 0.494 | – | 1079.3
[4], 298.15 K, x1 = 0.5262 | – | 1088.6
[4], 298.15 K, x1 = 0.5959 | – | 1106.9
[4], 298.15 K, x1 = 0.6934 | – | 1129.5
[4], 298.15 K, x1 = 0.7543 | – | 1141.9
[4], 298.15 K, x1 = 0.7993 | – | 1150.4
[4], 298.15 K, x1 = 0.8582 | – | 1160.4
[4], 298.15 K, x1 = 0.8962 | – | 1166.6
[4], 318.15 K, x1 = 0.0143 | – | 798.4
[4], 318.15 K, x1 = 0.0249 | – | 808.8
[4], 318.15 K, x1 = 0.0477 | – | 830.6
[4], 318.15 K, x1 = 0.1003 | – | 873.4
[4], 318.15 K, x1 = 0.1222 | – | 890.6
[4], 318.15 K, x1 = 0.1492 | – | 909.3
[4], 318.15 K, x1 = 0.2 | – | 940.8
[4], 318.15 K, x1 = 0.2295 | – | 957.5
[4], 318.15 K, x1 = 0.3112 | – | 997.8
[4], 318.15 K, x1 = 0.4002 | – | 1033.6
[4], 318.15 K, x1 = 0.4285 | – | 1043.6
[4], 318.15 K, x1 = 0.4635 | – | 1055.3
[4], 318.15 K, x1 = 0.5638 | – | 1084.7
[4], 318.15 K, x1 = 0.6072 | – | 1095.8
[4], 318.15 K, x1 = 0.6405 | – | 1103.5
[4], 318.15 K, x1 = 0.7096 | – | 1118.9
[4], 318.15 K, x1 = 0.8001 | – | 1136.9
[4], 318.15 K, x1 = 0.8522 | – | 1145.7
[4], 318.15 K, x1 = 0.9028 | – | 1154.2

CCCC[n+]1cccc(C)c1.F[B-](F)(F)F [1-butyl-3-methylpyridinium tetrafluoroborate] + CCO
Details | excess molar enthalpy [kcal/mol] | mass density [kg/m3]
[3], 298.15 K, x1 = 0.0052 | 0.0354 | –
[3], 298.15 K, x1 = 0.0159 | 0.0989 | –
[3], 298.15 K, x1 = 0.0279 | 0.148 | –
[3], 298.15 K, x1 = 0.0457 | 0.203 | –
[3], 298.15 K, x1 = 0.0691 | 0.26 | –
[3], 298.15 K, x1 = 0.0972 | 0.312 | –
[3], 298.15 K, x1 = 0.1132 | 0.338 | –
[3], 298.15 K, x1 = 0.1263 | 0.362 | –
[3], 298.15 K, x1 = 0.128 | 0.368 | –
[3], 298.15 K, x1 = 0.145 | 0.396 | –
[3], 298.15 K, x1 = 0.1585 | 0.405 | –
[3], 298.15 K, x1 = 0.1639 | 0.418 | –
[3], 298.15 K, x1 = 0.1838 | 0.445 | –
[3], 298.15 K, x1 = 0.2062 | 0.47 | –
[3], 298.15 K, x1 = 0.2305 | 0.495 | –
[3], 298.15 K, x1 = 0.2577 | 0.515 | –
[3], 298.15 K, x1 = 0.2878 | 0.531 | –
[3], 298.15 K, x1 = 0.3217 | 0.544 | –
[3], 298.15 K, x1 = 0.3623 | 0.546 | –
[3], 298.15 K, x1 = 0.4085 | 0.527 | –
[3], 298.15 K, x1 = 0.4689 | 0.484 | –
[3], 298.15 K, x1 = 0.5396 | 0.425 | –
[3], 298.15 K, x1 = 0.6277 | 0.348 | –
[3], 298.15 K, x1 = 0.7386 | 0.257 | –
[3], 298.15 K, x1 = 0.8712 | 0.14 | –
[3], 298.15 K, x1 = 0.9405 | 0.0727 | –
[3], 318.15 K, x1 = 0.0123 | 0.0626 | –
[3], 318.15 K, x1 = 0.0273 | 0.129 | –
[3], 318.15 K, x1 = 0.0472 | 0.201 | –
[3], 318.15 K, x1 = 0.0704 | 0.269 | –
[3], 318.15 K, x1 = 0.098 | 0.342 | –
[3], 318.15 K, x1 = 0.1279 | 0.411 | –
[3], 318.15 K, x1 = 0.1612 | 0.475 | –
[3], 318.15 K, x1 = 0.1789 | 0.508 | –
[3], 318.15 K, x1 = 0.2034 | 0.544 | –
[3], 318.15 K, x1 = 0.2335 | 0.577 | –
[3], 318.15 K, x1 = 0.2681 | 0.605 | –
[3], 318.15 K, x1 = 0.3063 | 0.627 | –
[3], 318.15 K, x1 = 0.3498 | 0.644 | –
[3], 318.15 K, x1 = 0.4055 | 0.645 | –
[3], 318.15 K, x1 = 0.4787 | 0.615 | –
[3], 318.15 K, x1 = 0.5648 | 0.549 | –
[3], 318.15 K, x1 = 0.6576 | 0.451 | –
[3], 318.15 K, x1 = 0.7668 | 0.326 | –
[3], 318.15 K, x1 = 0.881 | 0.184 | –
[4], 298.15 K, x1 = 0.0518 | – | 851.1
[4], 298.15 K, x1 = 0.0719 | – | 872.9
[4], 298.15 K, x1 = 0.1054 | – | 905.6
[4], 298.15 K, x1 = 0.1999 | – | 975.5
[4], 298.15 K, x1 = 0.2539 | – | 1006.2
[4], 298.15 K, x1 = 0.3 | – | 1028.2
[4], 298.15 K, x1 = 0.4054 | – | 1068.6
[4], 298.15 K, x1 = 0.5082 | – | 1098.9
[4], 298.15 K, x1 = 0.5895 | – | 1118
[4], 298.15 K, x1 = 0.664 | – | 1133
[4], 298.15 K, x1 = 0.7275 | – | 1144.5
[4], 298.15 K, x1 = 0.7682 | – | 1151
[4], 318.15 K, x1 = 0.0401 | – | 821.1
[4], 318.15 K, x1 = 0.0671 | – | 851
[4], 318.15 K, x1 = 0.0992 | – | 882.7
[4], 318.15 K, x1 = 0.1497 | – | 924.5
[4], 318.15 K, x1 = 0.2531 | – | 989.5
[4], 318.15 K, x1 = 0.3062 | – | 1015.1
[4], 318.15 K, x1 = 0.4041 | – | 1053
[4], 318.15 K, x1 = 0.5002 | – | 1082.2
[4], 318.15 K, x1 = 0.5998 | – | 1106.3
[4], 318.15 K, x1 = 0.6632 | – | 1118.8
[4], 318.15 K, x1 = 0.7118 | – | 1127.7
[4], 318.15 K, x1 = 0.7904 | – | 1141
